What was measured:
[1] = test system: SLC7A11 knock-out LU99 cells; experiment: CellTiter-Glo cell viability, SLC7A11 knock-out LU99 cells vs LacZ control; assay type: cell-based, human
Experimental: (§1) Cell viability was assayed using a modified manufacturer's protocol for CellTiter-Glo® (Promega #G7573). Cells were seeded at a density of 2000 cells per well in a 96 well black, clear bottom plate (Corning #89091-012) in 100 uL total media per well. The following day different concentrations of compounds at various doses were printed in triplicate in a random well format using the Tecan D300e Digital Dispenser. After 72 hours, 60 μL of a 1:3 solution of CellTiterGlo reagent in 1×PBS (Corning #01018002) was added per well and allowed to incubate at RT for 10 mins. Luminescence was measured with an integration time of 0.1 s using Envision Microplates Reader (PERKIN ELMER #2105-0010). Biological replicates were averaged and normalized to vehicle control. Dose curves were generated using Graphpad Prism.

[2] = test system: NCI-H2122 cells; experiment: Cell viability, NCI-H2122 cells with SLC7A11 knock-out and/or SLC25A45 over-expression; assay type: cell-based, human; settings: for effect of SLC7A11 knock-out and SLC25A45 over-expression on cell viability under treatment: SLC7A11 knock-out or SLC25A45 over-expression vs wild type
Experimental: as §1

[3] = test system: LU99 cells; experiment: CellTiter-Glo cell viability, LU99 wild type cells; assay type: cell-based; settings: Homo sapiens, Lu-99, read-out: IC50 (percent viability)
Experimental: as §1

[4] = test system: LU99 cells with ectopic expression of FAM3B; experiment: CellTiter-Glo cell viability, LU99 cells with ectopic expression of FAM3B; assay type: cell-based, human
Experimental: as §1

[5] = test system: LU99 cells over-expressing SLC25A45; experiment: CellTiter-Glo cell viability, LU99 cells over-expressing SLC25A45; assay type: cell-based; settings: Homo sapiens, Lu-99, SLC25A45 overexpression
Experimental: as §1

[6] = test system: 500 cancer cell lines; experiment: PRISM multiplex cancer cell line viability screen; assay type: cell-based, human; settings: 5,000 small molecules against 500 cancer cell lines
Experimental: Parental cell lines were obtained from the Cancer Cell Line Encyclopedia (CCLE) project. PRISM cell line barcoding, pooling, and screening was performed as previously described with several improvements to the original method. First, the lentiviral vector was modified to encode the unique barcode identifier at the end of the puromycin resistance gene. This enables barcodes to be detected using a variant of the mRNA capture and Luminex detection method developed for the L1000 gene expression assay. Second, a set of ten inert barcodes were spiked-in to each well of each plate after cell lysis to control for variation in PCR amplification as detailed below.
Luminex technology produced .Ixb files containing data for each Luminex bead observed during detection. These .Ixb files were processed to compute Median Fluorescence Intensity (MFI) values, calculated as the median of the values obtained for all beads corresponding to a single PRISM barcode. […]
For each cell line on each plate, the distribution of MFI values observed for the DMSO-treated negative controls was compared to that of the positive controls using a robust form of the Strictly Standardized Mean Difference (SSMD*)’. Specifically, SSMD* was calculated as: […]
Cell viability was calculated as the ratio of nMFI to the median of the nMFI from the DMSO-treated negative controls for each cell line on each plate. […]

[7] = test system: multiple solid tumor and hematopoietic cancer types; settings: monotherapy, phase 1 clinical trials; cited from earlier work

Row | SMILES | rescue from inhibitor-induced cell killing by knock-out of SLC7A11 [1] | effect of SLC7A11 knock-out and SLC25A45 over-expression on cell viability under treatment [2] | IC50 [3] | change in effects on cell death by ectopic FAM3B expression ([4]; ectopic FAM3B vs wild type) | IC50 [5] | IC50 ([4]; Homo sapiens, Lu-99, ectopic expression of FAM3B) | sensitivity of cells with combined SLC7A11 knock-out and SLC25A45 over-expression ([2]; combination of SLC7A11 knock-out and SLC25A45 over-expression) | cell line killing in PRISM screen [6] | clinical response [7]
1 | O=C(Cc1ccccc1)Nc1nnc(CCSCCc2nnc(NC(=O)Cc3ccccc3)s2)s1 [BPTES, Bis-2-(5-phenylacetamido-1,3,4-thiadiazol-2-yl)ethyl sulfide] | rescued sensitivity | increase cell viability | – | – | – | – | – | – | –
2 | O=C(Cc1cccc(OC(F)(F)F)c1)Nc1ccc(CCCCc2nnc(NC(=O)Cc3ccccn3)[se]2)nn1 [Glutaminase IN 1] | rescued sensitivity | increase cell viability | – | – | – | – | – | – | –
3 | CC(=O)O[C@H]1C(=O)[C@@]2(C)[C@H]([C@H](OC(=O)c3ccccc3)[C@]3(O)C[C@H](OC(=O)[C@H](O)[C@@H](NC(=O)c4ccccc4)c4ccccc4)C(C)=C1C3(C)C)[C@]1(OC(C)=O)CO[C@@H]1C[C@@H]2O [Paclitaxel] | – | no significant rescue of sensitivity | 2.2 nM | no change | – | – | – | – | –
4 | O=C(Cc1cccc(OC(F)(F)F)c1)Nc1ccc(CCCCc2nnc(NC(=O)Cc3ccccn3)s2)nn1 [Telaglenastat] | rescued | increase cell viability | 1.2 nM | – | 22 nM | > 10000 nM | almost completely resistant | selectively kill cell lines across a broad range of lineages | only occasional responses
5 | CN(C)c1ccc(C2Nc3ccc4ccccc4c3C3=C2C(=O)CC(C)(C)C3)cc1Br (centres unmarked) [compound 968] | not rescued | no significant rescue of sensitivity | – | – | – | – | – | – | –

From US20230151431A1, “METHODS AND COMPOSITIONS FOR IDENTIFYING AND TREATING GLUTAMINASE INHIBITOR-SENSITIVE CANCERS” (DANA-FARBER CANCER INSTITUTE, INC., priority 2020, published 2023)
